Results from PubChem BioAssay AID1918955 (Molecular Pharmacology Branch, DTP, NCI, 2023).

System: NCI/ADR-RES complex spheroid viability
Assay: Anticancer human tumor NCI/ADR-RES cell line growth inhibition;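 also: spheroids exposed to compounds for 7 days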;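 as to viability, T/C: 100% = DMSO vehicle treated spheroids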
Details: for IC50: curve of first compound; for viability, T/C: stronger effect = lower value
Excerpt: Multicellular complex tumor spheroid response to LSD1 Inhibitor Iadademstat in combination with a variety of drugs and investigational agents in selected tumor cell lines
The current study was undertaken to assess response to LSD1 inhibitors in combination with standard-of-care drugs and investigational agents in solid tumor complex spheroid models as well as in the K-562 leukemia. Complex spheroids include a stromal component modeled by human endothelial cells (HUVEC) and fibroblasts modeled by human mesenchymal stem cells (MSCs). The concentration ranges selected for each drug and investigational agent were based upon clinically achievable concentrations if the clinical Cmax of the agent was known.
Compounds. The drugs and investigational agents used in this study are listed on Table 1. All of the agents used, including staurosporine (NSC755774) and gemcitabine (NSC613327), were obtained from the Developmental Therapeutics Program, NCI. FDA-approved anticancer drugs are available from the NCI at http://dtp.nci.nih.gov/branches/dscb/oncology_drugset_explanation.html. Drugs and investigational agents were >95% pure by proton nuclear magnetic resonance (NMR) and liquid chromatography/mass spectrometry (LC/MS). Stock solutions were prepared at 400x in DMSO, stored at -70 degrees C, and diluted in fresh medium prior to their use. The final concentration of DMSO in cell culture wells never exceeded 0.25% (v/v). The FDA-approved anticancer drug set is available from the Developmental Therapeutics Program at https://dtp.cancer.gov/organization/dscb/obtaining/available_plates.htm. All drugs and investigational agents were tested over a range starting from a high concentration at or near the clinical Cmax and decreasing in half-log increments. If the clinical Cmax for an agent had not been determined, the highest concentration tested was 10 microM.
Cell Lines. The patient-derived cancer cell (PDC) lines: 292921-168-R-J2-PDC, K24384-001-R-PDC, and 521955-158-R2-J5-PDC pancreatic carcinomas, 556581-035-R-J1 ovarian carcinoma, 324938-238-R-J1-PDC, 855422-203-R-J1-PDC and 883617-216-R-J1-PDC urothelial bladder carcinomas, 743489-274-T-PDC renal cell carcinoma, 138582-R-J1 Merkel cell tumor, K60290-347-R-J1 and K57222-313-R-J1-PDC glioblastomas, 653999-131-R-J2-PDC, LG0703-F948-PDC, and 349418-098-R-PDC non-small cell lung carcinomas, 885512-296-R-J2-PDC, 171881-019-R-J1-PDC breast carcinomas and 186277-243-T-J2-PDC and 233499-124-R-J2-PDC colon carcinomas were obtained from the NCI Patient-Derived Models Repository (PDMR, https://pdmr.cancer.gov). The established cell lines NCI/ADR-RES (RRID:CVCL_14520 and OVCAR-5 (RRID:CVCL_1628) ovarian carcinomas, 786-O (RRID:CVCL_1051) and A498 (RRID:CVCL_A498) renal cell carcinoma, NCI-H211 (ATCC, cat. CRL-5824; RRID:CVCL_1529), NCI-H196 (ATCC, cat. CRL-5823, RRID:CVCL_1509), SW 1271 (ATCC, cat. CRL-2177, RRID:CVCL_1716) and NCI-H1876 (ATCC, cat. CRL-5902, RRID:CVCL_1503) small cell lung carcinomas, MDA-MB-231 (RRID:CVCL_0062) and MDA-MB-468 (RRID:CVCL_0419)breast carcinomas (10-12). Pooled donor human umbilical vein endothelial cells (HUVEC, Lonza, cat. CC-2519) and human mesenchymal stem cells (hMSC, Lonza, cat. PT-2501) were purchased from Lonza (Walkersville, MD).
Cell Culture. All cells were maintained in an incubator at 37 degrees C and 5% CO2 with 95% humidity. The PDC lines were cultured according to standard operating procedures established by the NCI PDMR (https://pdmr.cancer.gov). Briefly all PDCs were thawed and cultured in Matrigel-coated flasks prepared with a working solution of 1X Ham's F-12 nutrient mix, without supplementation (Invitrogen, Waltham, MA, cat. 11765054), 100 U/mL penicillin-streptomycin (Invitrogen, cat. 15140122), and 2.5% Matrigel (Corning Inc., Corning, NY, cat. 354248) for the first three passages. […]

SMILES: Nc1ncn(C2CC(O)C(CO)S2)c(=O)n1 (stereo not given) + NC1CCC(NC2CC2c2ccccc2)CC1
- IC50 (second compound 0.1 µM): 17.5 nM
- IC50 (second compound 0.316 µM): 12.6 nM
- IC50 (second compound 1 µM): 13.9 nM
- IC50 (second compound 3.16 µM): 8.87 nM
- IC50 (second compound 10 µM): 6.46 nM
- viability, T/C (second compound 0.1 µM, first compound 0.000949 µM): 99.2%
- viability, T/C (second compound 0.1 µM, first compound 0.003 µM): 76.1%
- viability, T/C (second compound 0.1 µM, first compound 0.00949 µM): 60.2%
- viability, T/C (second compound 0.1 µM, first compound 0.03 µM): 41.5%
- viability, T/C (second compound 0.1 µM, first compound 0.0949 µM): 25.3%
- viability, T/C (second compound 0.1 µM, first compound 0.3 µM): 6.6%
- viability, T/C (second compound 0.316 µM, first compound 0.000949 µM): 106%
- viability, T/C (second compound 0.316 µM, first compound 0.003 µM): 79.3%
- viability, T/C (second compound 0.316 µM, first compound 0.00949 µM): 56.2%
- viability, T/C (second compound 0.316 µM, first compound 0.03 µM): 34%
- viability, T/C (second compound 0.316 µM, first compound 0.0949 µM): 17.1%
- viability, T/C (second compound 0.316 µM, first compound 0.3 µM): 6.79%
- viability, T/C (second compound 1 µM, first compound 0.000949 µM): 99.9%
- viability, T/C (second compound 1 µM, first compound 0.003 µM): 80.3%
- viability, T/C (second compound 1 µM, first compound 0.00949 µM): 57%
- viability, T/C (second compound 1 µM, first compound 0.03 µM): 35%
- viability, T/C (second compound 1 µM, first compound 0.0949 µM): 18.6%
- viability, T/C (second compound 1 µM, first compound 0.3 µM): 4.76%
- viability, T/C (second compound 3.16 µM, first compound 0.000949 µM): 102%
- viability, T/C (second compound 3.16 µM, first compound 0.003 µM): 66.1%
- viability, T/C (second compound 3.16 µM, first compound 0.00949 µM): 46.6%
- viability, T/C (second compound 3.16 µM, first compound 0.03 µM): 37.1%
- viability, T/C (second compound 3.16 µM, first compound 0.0949 µM): 17.7%
- viability, T/C (second compound 3.16 µM, first compound 0.3 µM): 4.6%
- viability, T/C (second compound 10 µM, first compound 0.000949 µM): 85.1%
- viability, T/C (second compound 10 µM, first compound 0.003 µM): 57.3%
- viability, T/C (second compound 10 µM, first compound 0.00949 µM): 43.7%
- viability, T/C (second compound 10 µM, first compound 0.03 µM): 31%
- viability, T/C (second compound 10 µM, first compound 0.0949 µM): 13.9%
- viability, T/C (second compound 10 µM, first compound 0.3 µM): 3.33%

SMILES: COc1ccc([C@@H](O)c2cc(-c3ncnc4cc(N5CCOCC5)ccc34)c(F)cc2Cl)nn1 + NC1CCC(NC2CC2c2ccccc2)CC1
- IC50 (second compound 0.1 µM): 3590 nM
- IC50 (second compound 0.316 µM): 3970 nM
- IC50 (second compound 1 µM): 3120 nM
- IC50 (second compound 3.16 µM): 2970 nM
- IC50 (second compound 10 µM): 2060 nM
- viability, T/C (second compound 0.1 µM, first compound 0.0316 µM): 102%
- viability, T/C (second compound 0.1 µM, first compound 0.1 µM): 90.2%
- viability, T/C (second compound 0.1 µM, first compound 0.316 µM): 91.8%
- viability, T/C (second compound 0.1 µM, first compound 1 µM): 89.8%
- viability, T/C (second compound 0.1 µM, first compound 3.16 µM): 52.8%
- viability, T/C (second compound 0.1 µM, first compound 10 µM): 26.9%
- viability, T/C (second compound 0.316 µM, first compound 0.0316 µM): 108%
- viability, T/C (second compound 0.316 µM, first compound 0.1 µM): 105%
- viability, T/C (second compound 0.316 µM, first compound 0.316 µM): 89.7%
- viability, T/C (second compound 0.316 µM, first compound 1 µM): 82.7%
- viability, T/C (second compound 0.316 µM, first compound 3.16 µM): 53.5%
- viability, T/C (second compound 0.316 µM, first compound 10 µM): 28.2%
- viability, T/C (second compound 1 µM, first compound 0.0316 µM): 102%
- viability, T/C (second compound 1 µM, first compound 0.1 µM): 97.8%
- viability, T/C (second compound 1 µM, first compound 0.316 µM): 90.6%
- viability, T/C (second compound 1 µM, first compound 1 µM): 74.1%
- viability, T/C (second compound 1 µM, first compound 3.16 µM): 49.5%
- viability, T/C (second compound 1 µM, first compound 10 µM): 27.9%
- viability, T/C (second compound 3.16 µM, first compound 0.0316 µM): 101%
- viability, T/C (second compound 3.16 µM, first compound 0.1 µM): 105%
- viability, T/C (second compound 3.16 µM, first compound 0.316 µM): 93.6%
- viability, T/C (second compound 3.16 µM, first compound 1 µM): 73.3%
- viability, T/C (second compound 3.16 µM, first compound 3.16 µM): 50%
- viability, T/C (second compound 3.16 µM, first compound 10 µM): 28.5%
- viability, T/C (second compound 10 µM, first compound 0.0316 µM): 89.7%
- viability, T/C (second compound 10 µM, first compound 0.1 µM): 86.3%
- viability, T/C (second compound 10 µM, first compound 0.316 µM): 85.6%
- viability, T/C (second compound 10 µM, first compound 1 µM): 64.8%
- viability, T/C (second compound 10 µM, first compound 3.16 µM): 41.2%
- viability, T/C (second compound 10 µM, first compound 10 µM): 24.2%
